The values below come from patent US20140213576A1, “NOVEL COMPOUND USEFUL FOR THE TREATMENT OF DEGENERATIVE AND INFLAMMATORY DISEASES” (GALAPAGOS NV, priority 2013, published 2014).

The test relates to GM-CSF-induced STAT5 phosphorylation. The experiment in a line: Whole blood assay, GM-CSF stimulation, phospho-STAT5 by FACS. It is filed as cell-based. The conditions noted are these: human whole blood, CD14+ cells, 8 different donors. As for the experimental part:
In addition, a flow cytometry analysis was performed to establish JAK1 over JAK2 compound selectivity ex vivo using human whole blood. Therefore, blood was taken from human volunteers who gave informed consent. Blood was then equilibrated for 30 min at 37° C. under gentle rocking, then aliquoted in Eppendorf tubes. Compound was added at different concentrations and incubated at 37° C. for 30 min under gentle rocking and subsequently stimulated for 20 min at 37° C. under gentle rocking with interleukin 6 (IL-6) for JAK1-dependent pathway stimulation or GM-CSF for JAK2-dependent pathway stimulation. Phospho-STAT1 and phospho-STAT5 were then evaluated using FACS analysis.
For GM-CSF-stimulated increase of Signal Transducers and Activators of Transcription 5 (pSTAT5) phosphorylation in white blood cell, human whole blood, drawn from human volunteers who gave informed consent, is ex vivo treated with compound for 30 min and subsequently stimulated for 20 min with GM-CSF. The increase in phosphorylation of STAT5 by GM-CSF in monocytes is measured using an anti phospho-STAT5 antibody by FACS. […]
Cells are then washed once with 1×PBS and analyzed on a FACSCanto II flow cytometer (BD Biosciences).
50,000 total events are counted and Phospho-STAT5 positive cells are measured after gating on CD14+ cells. […]

What is called IC50 is the midpoint of a concentration-inhibition curve. A high value points to weaker potency in that assay. Regarding `CCc1cc(C2CN(S(C)(=O)=O)C2)ncc1N(C)c1cc2c(cn1)ncn2C` [Compound 1, [4-Ethyl-6-(1-methanesulfonyl-azetidin-3-yl)-pyridin-3-yl]-methyl-(1-methyl-1H-imidazo[4,5-d]pyridin-6-yl)-amine], the IC50 is above 22.4 µM.
